Source: patent publication US5134137A, “Cephalosporin antibiotics” (The Upjohn Company, priority 1990, dated 1992)
In brackets after ≈: the same amount, converted by molar mass. Like-named read-outs stand apart in the source and are kept apart here.

Tests used:
Format in all cases: cell-based
Streptococcus bovis = assay: MIC, agar dilution, Streptococcus bovis; conditions: Streptococcus equinus; strain UC6281; read-out: MIC
Method in brief: (§1)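 Each organism receives an inoculum of approx. 10^3–10^4 CFU, taken from a 5% CO2 BHI subculture standardised to 0.5 McFarland and diluted 1:20. It is spotted on Mueller-Hinton agar containing the compound, then incubated for 16–18 h at 37 °C with CO2.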

[1] = tested on: Bordetella bronchiseptica; assay: MIC, agar dilution, Bordetella bronchiseptica; conditions: Bordetella bronchiseptica, read-out: MIC
Method in brief: as §1

Streptococcus uberis = assay: MIC, agar dilution, Streptococcus uberis; conditions: Streptococcus uberis, read-out: MIC
Method in brief: as §1

Pasteurella hemolytica = assay: MIC (minimum inhibitory concentration), agar dilution, Pasteurella hemolytica; conditions: Pasteurella, read-out: MIC
Method in brief: as §1

Pseudomonas aeruginosa = assay: MIC, agar dilution, Pseudomonas aeruginosa; conditions: Pseudomonas aeruginosa; strain ATCC27853; read-out: MIC
Method in brief: as §1

Salmonella choleraesuis = assay: MIC, agar dilution, Salmonella choleraesuis; conditions: Salmonella enterica, read-out: MIC
Method in brief: as §1

[2] = tested on: Streptococcus dysgalactiae; assay: MIC, agar dilution, Streptococcus dysgalactiae; conditions: Streptococcus dysgalactiae; strain UC251; read-out: MIC
Method in brief: as §1

Pasteurella multocida = assay: MIC, agar dilution, Pasteurella multocida; conditions: Pasteurella multocida; strain B77-18; read-out: MIC
Method in brief: as §1

Escherichia coli = assay: MIC, agar dilution, Escherichia coli; conditions: Escherichia coli, read-out: MIC
Method in brief: as §1

Streptococcus suis = assay: MIC, agar dilution, Streptococcus suis
Method in brief: as §1

Strep. faecalis = assay: MIC, agar dilution, Strep. faecalis; conditions: Enterococcus faecalis
Protocol: Stock solution of each test antibiotic compound were prepared to have a concentration of 2 mg. of the test compound per milliliter in sterile water of 0.1M ammonium acetate solution. The amount of each compound used was adjusted for base compound activity as calculated from the purity data for the selected batch of compound.
The dilution procedure described by Washington and Sutter [Manual of Clinical Microbiology, 3rd, Edit. (Lennett, E. H. et al, Eds.), pp. 453-458 (1980), American Society for Microbiology, Washington, D.C.] was modified so that serial concentrations of 128 to 0.0625 microgram/ml. in sterile water was obtained. Then 1.5 ml. aliquots of these test antibiotic dilution mixtures are added to 13.5 molten (50° C.) Mueller-Hinton agar. Each resulting mixture is poured into 15×100 mm, sterile Petri plates and allowed to dry at room temperature overnight.
Test bacterial cultures are maintained at -70° C. on glass beads. [See R. J. Yancey, Jr. et al, Amer. Jr. of Vet. Research, 48, No. 7, pp. 1050-1053, (1987)]. At least one bacteria-laden bead per culture is dropped into one ml. of brain heart infusion (BHI) broth for overnight culture at 37° C. in 5% V/V carbon dioxide in air atmosphere.
On the data of assay, 2 to 8 drops of the bacterial broth cultures are transferred to fresh BHI broth (1 ml.) and the mixture is incubated for 4 to 6 hours at 37° C. in a 5% V/V carbon dioxide in air atmosphere. The resulting cultures are then diluted to match a 0.5 MacFarland standard and further diluted 1:20 V/V with sterile saline solution.
A 0.001 ml. drop of the resulting mixture, containing approximately 10^3 to 10^4 colony forming units (CFU) of each test bacteria organism, is dispensed onto the surface of the test antibiotic compound test plates with a Steer's type replicator. The resulting innoculated plates are incubated 16 to 18 hours at 37° C. with a carbon dioxide atmosphere.

Streptococcus agalactiae = assay: MIC, agar dilution, Streptococcus agalactiae; conditions: Streptococcus agalactiae, read-out: MIC
Method in brief: as §1

Salmonella typhimurium = assay: MIC, agar dilution, Salmonella typhimurium; conditions: Salmonella enterica, read-out: MIC
Method in brief: as §1

Staphylococcus aureus = assay: MIC, agar dilution, Staphylococcus aureus; conditions: Staphylococcus aureus, read-out: MIC
Method in brief: as §1

[3] = CHOLERAESUIS / UC6073, strain UC6073
[4] = CHOLERAESUIS / UC6077, strain UC6077
[5] = Streptococcus suis, strain 538-2, read-out: MIC
[6] = TYPHIMURIUM / UC6162, strain UC6162
[7] = TYPHIMURIUM / UC6164, strain UC6164

Row | Structure (SMILES) | MIC (Streptococcus bovis) [µg/mL] | MIC ([1]; strain UC3287) [µg/mL] | MIC ([1]; strain UC6313) [µg/mL] | MIC (Streptococcus uberis; strain UC3946) [µg/mL] | MIC (Streptococcus uberis; strain UC6159) [µg/mL] | MIC (Pasteurella hemolytica; strain B77-19) [µg/mL] | MIC (Pasteurella hemolytica; strain UC6531) [µg/mL] | MIC (Pasteurella hemolytica; strain UC6532) [µg/mL] | MIC (Pseudomonas aeruginosa) [µg/mL] | MIC (Salmonella choleraesuis; [3]) [µg/mL] | MIC (Salmonella choleraesuis; [4]) [µg/mL] | MIC [2] [µg/mL] | MIC (Pasteurella multocida) [µg/mL] | MIC (Escherichia coli; strain ATCC25922) [µg/mL] | MIC (Escherichia coli; strain P75-1) [µg/mL] | MIC (Escherichia coli; strain UC3784) [µg/mL] | MIC (Escherichia coli; strain UC6720) [µg/mL] | MIC (Streptococcus suis; [5]) [µg/mL] | MIC (Streptococcus suis; strain 650-2) [µg/mL] | MIC (Strep. faecalis; strain ATCC29212) [µg/mL] | other results
1 | CO/N=C(\C(=O)N[C@@H]1C(=O)N2C(C(=O)O)=C(CS)CS[C@H]12)c1csc(N)n1 [Formula III compound, 3-mercaptomethyl-7β-[2-(2-amino-1,3-thiazol-4-yl)-(Z)-2-(methoxyimino)acetamido]ceph-3-em-4-carboxylic acid] | ≤ 0.06 | > 32 | > 32 | 0.25 | 32 | ≤ 0.06 | ≤ 0.06 | ≤ 0.06 | > 32 | 2 | 1 | ≤ 0.06 | ≤ 0.06 | 0.5 | 0.5 | 0.5 | 0.5 | ≤ 0.06 | ≤ 0.06 | > 32 | MIC (Strep. faecalis; strain UC241): > 32 µg/mL; MIC (Strep. faecalis; strain UC694): > 32 µg/mL; MIC (Streptococcus agalactiae; strain UC3947): ≤ 0.06 µg/mL; MIC (Streptococcus agalactiae; strain UC6892): ≤ 0.06 µg/mL; MIC (Salmonella typhimurium; [6]): 0.5 µg/mL; MIC (Salmonella typhimurium; [7]): 0.5 µg/mL; MIC (Staphylococcus aureus; strain ATCC25923): 16 µg/mL; MIC (Staphylococcus aureus; strain UC6093): 16 µg/mL; MIC (Staphylococcus aureus; strain UC6097): 16 µg/mL; MIC (Staphylococcus aureus; strain UC6688): > 32 µg/mL; MIC (Staphylococcus aureus; strain UC9201): 16 µg/mL
2 | CO/N=C(\C(=O)N[C@@H]1C(=O)N2C(C(=O)O)=C(CSC(=O)c3ccco3)CS[C@H]12)c1csc(N)n1 [ceftiofur, 7-[2-(amino-1,3-thiazol-4-yl)-2-(methoxyimino)acetamido]-3-[(fur-2-ylcarbonyl)thiomethyl]-3-cephem-4-carboxylic acid, reference compound] | ≤ 0.06 | > 32 | > 32 | ≤ 0.06 | 0.25 (≈ 0.477 µM) | ≤ 0.06 | ≤ 0.06 | ≤ 0.06 | 32 (≈ 61.1 µM) | 1 (≈ 1.91 µM) | 2 (≈ 3.82 µM) | ≤ 0.06 | ≤ 0.06 | 0.13 (≈ 0.248 µM) | 0.13 (≈ 0.248 µM) | 0.13 (≈ 0.248 µM) | 0.13 (≈ 0.248 µM) | ≤ 0.06 | ≤ 0.06 | 32 (≈ 61.1 µM) | MIC (Strep. faecalis; strain UC241): > 32 µg/mL; MIC (Strep. faecalis; strain UC694): > 32 µg/mL; MIC (Streptococcus agalactiae; strain UC3947): ≤ 0.06 µg/mL; MIC (Streptococcus agalactiae; strain UC6892): ≤ 0.06 µg/mL; MIC (Salmonella typhimurium; [6]): 0.25 µg/mL (≈ 0.477 µM); MIC (Salmonella typhimurium; [7]): 0.25 µg/mL (≈ 0.477 µM); MIC (Staphylococcus aureus; strain ATCC25923): 0.25 µg/mL (≈ 0.477 µM); MIC (Staphylococcus aureus; strain UC6093): 1 µg/mL (≈ 1.91 µM); MIC (Staphylococcus aureus; strain UC6097): 0.5 µg/mL (≈ 0.955 µM); MIC (Staphylococcus aureus; strain UC6688): 32 µg/mL (≈ 61.1 µM); MIC (Staphylococcus aureus; strain UC9201): 1 µg/mL (≈ 1.91 µM)
3 | CO/N=C(\C(=O)N[C@@H]1C(=O)N2C(C(=O)O)=C(CO)CS[C@H]12)c1csc(N)n1 [desacetyl cefotoxime, 7-[2-(2-amino-1,3-thiazol-4-yl)-(syn)-2-methoxyiminoacetamido]-3-hydroxymethylceph-3-em-4-carboxylic acid, reference compound] | ≤ 0.06 | > 32 | > 32 | ≤ 0.06 | 16 (≈ 38.7 µM) | ≤ 0.06 | ≤ 0.06 | ≤ 0.06 | > 32 | 0.5 (≈ 1.21 µM) | 1 (≈ 2.42 µM) | ≤ 0.06 | ≤ 0.06 | 0.25 (≈ 0.605 µM) | 0.25 (≈ 0.605 µM) | 0.25 (≈ 0.605 µM) | 0.25 (≈ 0.605 µM) | ≤ 0.06 | ≤ 0.06 | > 32 | MIC (Strep. faecalis; strain UC241): > 32 µg/mL; MIC (Strep. faecalis; strain UC694): > 32 µg/mL; MIC (Streptococcus agalactiae; strain UC3947): ≤ 0.6 µg/mL; MIC (Streptococcus agalactiae; strain UC6892): ≤ 0.06 µg/mL; MIC (Salmonella typhimurium; [6]): 0.13 µg/mL (≈ 0.314 µM); MIC (Salmonella typhimurium; [7]): 0.13 µg/mL (≈ 0.314 µM); MIC (Staphylococcus aureus; strain ATCC25923): 4 µg/mL (≈ 9.67 µM); MIC (Staphylococcus aureus; strain UC6093): 16 µg/mL (≈ 38.7 µM); MIC (Staphylococcus aureus; strain UC6097): 16 µg/mL (≈ 38.7 µM); MIC (Staphylococcus aureus; strain UC6688): > 32 µg/mL; MIC (Staphylococcus aureus; strain UC9201): 16 µg/mL (≈ 38.7 µM)
